Legend:
αvβ3 receptor = molecular target: T1, αvβ3 receptor (Homo sapiens, UniProt P05106+P06756); experiment: Binding to the αvβ3 receptor (echistatin displacement, WGA SPA beads); conditions: αvβ3 purified from human A375 cells, labelled echistatin, read-out: avb3 IC50
T1 construct: αvβ3 from human A375 cells were purified according to a procedure described by Wong et al; endogenous in cells; host or cells: human A375 cells; receptor purified from the cells, detergent-solubilised
Procedure: a) Binding to the αvβ3 receptor
10 µl αvβ3 (5 ng) in TBS pH 7.6, 2 mM CaCl2, 1mM MgCl2, 1% n/octylglucopyranoside; 10 µl of the substance to be tested in TBS pH 7.6, 0.1 % dimethylsulfoxide (DMSO), and 45 µl TBS pH 7.6, 2 mM CaCl2, 1 mM MgCl2, 1 mM MnCl2 were each incubated for 1 h at room temperature.

Smooth muscle cells = experiment: Smooth muscle cell (SMC) migration test (horizontal, vitronectin-coated plates); format: cell-based, humans or rats; conditions: migration on vitronectin, 24 hours at 37°C; human or rat cells not specified
Procedure: b) Smooth muscle cell (SMC) migration test
Smooth muscle cells from humans or rats were used. The migration of the cells was determined in a horizontal measuring arrangement (Falcon).
The horizontal migration was determined in 6-well plates coated with vitronectin (1 µg/cm^2). The cells were suspended in a medium ([…]-rat smooth muscle cells or MCDB 131 with 0.2% BSA-human smooth muscle cells), inoculated and allowed to grow to confluence. Half of the smooth muscle cell lawn was then scraped off, and the cells were treated with different concentrations of the test compounds. The mixtures were incubated for 24 hours at 37°C in the presence of 5% CO2. After the incubation, the smooth muscle cell migration was determined by measurement of the migration distance and the cell density of the migrated cells.

αvβ5 receptor = αvβ5 receptor (Homo sapiens, UniProt P06756+P18084); conditions: disclosed in WO 98/00395; cited from earlier work
Sequence of αvβ5 receptor (P06756 31-889 limits assumed): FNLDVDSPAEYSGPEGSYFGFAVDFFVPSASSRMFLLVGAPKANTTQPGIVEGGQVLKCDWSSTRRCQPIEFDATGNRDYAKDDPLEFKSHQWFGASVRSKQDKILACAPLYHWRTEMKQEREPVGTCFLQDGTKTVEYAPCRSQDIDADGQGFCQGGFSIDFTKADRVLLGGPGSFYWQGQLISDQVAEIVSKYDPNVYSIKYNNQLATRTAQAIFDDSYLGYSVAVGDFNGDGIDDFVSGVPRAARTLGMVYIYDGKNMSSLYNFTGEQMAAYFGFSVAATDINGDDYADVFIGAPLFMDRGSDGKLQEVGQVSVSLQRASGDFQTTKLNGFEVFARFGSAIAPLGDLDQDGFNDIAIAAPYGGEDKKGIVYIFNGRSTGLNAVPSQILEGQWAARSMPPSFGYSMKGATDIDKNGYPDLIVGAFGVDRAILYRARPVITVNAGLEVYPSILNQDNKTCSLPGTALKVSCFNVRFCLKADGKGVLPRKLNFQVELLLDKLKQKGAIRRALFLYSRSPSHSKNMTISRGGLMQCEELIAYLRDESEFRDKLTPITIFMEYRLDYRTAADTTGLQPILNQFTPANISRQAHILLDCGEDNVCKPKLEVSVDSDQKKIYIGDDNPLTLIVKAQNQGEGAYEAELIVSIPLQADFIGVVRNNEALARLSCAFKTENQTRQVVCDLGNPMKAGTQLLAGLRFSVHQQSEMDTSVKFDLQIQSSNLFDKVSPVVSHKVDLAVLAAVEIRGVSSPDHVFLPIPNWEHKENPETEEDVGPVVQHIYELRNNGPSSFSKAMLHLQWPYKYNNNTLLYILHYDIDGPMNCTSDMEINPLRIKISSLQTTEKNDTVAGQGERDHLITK
Sequence of αvβ5 receptor (P06756 891-1048 partner limits assumed): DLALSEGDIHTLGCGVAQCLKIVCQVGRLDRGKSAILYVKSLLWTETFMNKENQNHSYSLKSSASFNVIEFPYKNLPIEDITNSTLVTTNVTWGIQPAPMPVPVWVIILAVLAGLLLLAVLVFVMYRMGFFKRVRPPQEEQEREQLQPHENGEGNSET
Sequence of αvβ5 receptor (P18084 24-799): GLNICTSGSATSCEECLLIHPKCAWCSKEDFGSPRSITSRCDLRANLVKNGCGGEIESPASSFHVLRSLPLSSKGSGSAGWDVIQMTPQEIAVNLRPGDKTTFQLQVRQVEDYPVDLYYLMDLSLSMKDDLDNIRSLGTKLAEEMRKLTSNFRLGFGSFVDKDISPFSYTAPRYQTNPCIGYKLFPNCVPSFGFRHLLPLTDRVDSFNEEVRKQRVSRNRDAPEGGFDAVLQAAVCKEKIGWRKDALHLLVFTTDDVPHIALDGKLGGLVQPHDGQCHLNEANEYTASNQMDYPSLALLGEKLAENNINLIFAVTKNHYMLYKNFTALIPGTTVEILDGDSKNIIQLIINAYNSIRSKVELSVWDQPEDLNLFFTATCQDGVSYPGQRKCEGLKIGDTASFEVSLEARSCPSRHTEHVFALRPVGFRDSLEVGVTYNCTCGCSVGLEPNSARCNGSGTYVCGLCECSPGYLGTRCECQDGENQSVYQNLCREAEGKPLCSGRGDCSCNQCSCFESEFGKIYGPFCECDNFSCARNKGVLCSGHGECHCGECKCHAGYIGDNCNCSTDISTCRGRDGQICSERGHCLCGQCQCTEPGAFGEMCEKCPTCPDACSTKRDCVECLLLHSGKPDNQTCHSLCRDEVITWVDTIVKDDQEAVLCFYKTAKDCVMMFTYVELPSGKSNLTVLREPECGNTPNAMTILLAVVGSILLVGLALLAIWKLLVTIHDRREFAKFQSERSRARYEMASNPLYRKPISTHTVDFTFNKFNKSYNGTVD

T1 sequence (P06756 31-889 limits assumed): as the sequence (P06756 31-889 limits assumed) above
T1 sequence (P06756 891-1048 partner limits assumed): as the sequence (P06756 891-1048 partner limits assumed) above
T1 sequence (P05106 27-788): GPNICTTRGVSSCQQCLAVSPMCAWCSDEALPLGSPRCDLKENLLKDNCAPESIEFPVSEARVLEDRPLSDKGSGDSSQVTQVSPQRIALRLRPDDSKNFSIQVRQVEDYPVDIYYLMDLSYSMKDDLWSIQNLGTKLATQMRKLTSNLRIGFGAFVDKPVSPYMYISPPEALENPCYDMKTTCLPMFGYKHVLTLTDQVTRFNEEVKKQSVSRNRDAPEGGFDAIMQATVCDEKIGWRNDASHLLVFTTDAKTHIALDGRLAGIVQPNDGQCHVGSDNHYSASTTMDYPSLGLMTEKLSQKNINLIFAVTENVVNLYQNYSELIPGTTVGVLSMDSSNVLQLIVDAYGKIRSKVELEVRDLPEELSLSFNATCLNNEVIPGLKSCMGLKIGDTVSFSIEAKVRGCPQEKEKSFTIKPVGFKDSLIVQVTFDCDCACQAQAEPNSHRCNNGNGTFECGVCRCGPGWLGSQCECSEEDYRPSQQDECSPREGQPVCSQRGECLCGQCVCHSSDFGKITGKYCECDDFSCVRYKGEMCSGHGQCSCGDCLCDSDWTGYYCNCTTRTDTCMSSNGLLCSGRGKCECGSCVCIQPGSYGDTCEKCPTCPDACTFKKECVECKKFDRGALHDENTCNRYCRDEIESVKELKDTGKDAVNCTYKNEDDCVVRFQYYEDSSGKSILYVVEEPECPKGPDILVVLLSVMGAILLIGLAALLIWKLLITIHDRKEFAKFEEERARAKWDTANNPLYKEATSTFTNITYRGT

| Structure (SMILES) | IC50 (αvβ3 receptor) [nM] | IC50 (Smooth muscle cells) [nM] | IC50 (αvβ5 receptor) [nM] |
| --- | --- | --- | --- |
| Cc1cc(C)c(S(=O)(=O)N[C@@H](Cc2ccc(-c3cccc(NC(=O)c4ncc[nH]4)c3)cc2)C(=O)O)c(C)c1 [Example 19.1.2, (2S)-3-{3'-[(1H-imidazol-2-ylcarbonyl)amino][1,1'-biphenyl]-4-yl}-2-[(mesitylsulfonyl)amino]-propanoic acid] | 1 | 80 |  |
| Cc1cc(C)c(S(=O)(=O)NC(Cc2ccc(-c3cccc(NC4=NCCN4)c3)cc2)C(=O)O)c(C)c1 (racemic) [Example 7.1, (2R,S)-3-[3'-(4,5-Dihydro-1H-Imidazol-2-ylamino)-biphenyl-4-yl]-2-(2,4,6-trimethyl-benzenesulfonylamino)-propanoic acid] | 1.2 |  |  |
| CC1(C)C2CCC1(CS(=O)(=O)NC(Cc1ccc(-c3cccc(NC(=O)Nc4cccnc4)c3)cc1)C(=O)O)C(=O)C2 [Example 1.73, (2S)-3-[3'-(3-Pyridin-3-yl-ureido)-biphenyl-4-yl]-2-[(S)-campher-10-yl-sulfonylamino]-propanoic acid] |  | 3 to 40 |  |
| CC1(C)C2CCC1(CS(=O)(=O)NC(Cc1ccc(OCCCC(=O)NC(=N)N)cc1)C(=O)O)C(=O)C2 (centres unmarked) [(I)] |  |  | 0.16 |
| O=C(O)CC(NS(=O)(=O)c1cccc(-c2cccc(CNCc3nc4ccccc4[nH]3)c2)c1)c1ccccc1 (racemic) [Example 8.1, (3R,S)-3-(3'-{[(1H-Benzoimidazol-2-ylmethyl)-amino]-methyl}-biphenyl-3-sulfonylamino)-3-phenyl-propanoic acid] |  | 300 |  |
| O=C(O)CNS(=O)(=O)c1cccc(-c2cccc(NC(=O)NCc3ccccn3)c2)c1 [Example 4.1, [3'-(3-Pyridin-2-ylmethyl-ureido)-biphenyl-3-sulfonylamino]-acetic acid] | 33 | 300 |  |
| Cc1cc(C)c(S(=O)(=O)N[C@@H](Cc2ccc(-c3cccc(NC(=O)NC4CC4)c3)cc2)C(=O)O)c(C)c1 [Example 1.13, (2S)-3-[3'-(3-Cyclopropyl-ureido)-biphenyl-4-yl]-2-(2,4,6-trimethyl-benzenesulfonylamino)-propanoic acid] | 1.2 | 390 |  |
| Cc1cc(C)c(S(=O)(=O)N[C@@H](Cc2ccc(-c3cccc(CNc4ccccn4)c3)cc2)C(=O)O)c(C)c1 [Example 18.1.3, (2S)-2-Mesitylsulfonylamino-3-{3'-[(2-pyridinylamino)-methyl][1,1'-biphenyl]-4-yl}-propanoic acid] | 9 | 35 to 80 |  |
| Cc1cc(C)c(S(=O)(=O)NC(Cc2ccc(-c3cccc(NC(=O)NCc4cccnc4)c3)cc2)C(=O)O)c(C)c1 (racemic) [Example 1.5, (2R,S)-3-[3'-(3-(Pyridin-3-yl-methylureido)-biphenyl-4-yl]-2-[2,4,6-trimethylbenzenesulfonylamino]-propanoic acid] | 5 | 480 |  |

Reference: patent EP1140809B1, “NEW BIPHENYL AND BIPHENYL-ANALOGOUS COMPOUNDS AS INTEGRIN ANTAGONISTS” (Bayer HealthCare AG, priority 1998, dated 2000)
